Results from patent US20110112124A1, “FUNGICIDAL COMPOSITIONS” (SYNGENTA CROP PROTECTION, INC., priority 2008, published 2011).
Read-outs that look alike come from different tables or passages of the source.

How the values were obtained:
[1] = test system: Tapesia yallundae W-type (Pseudocercosporella herpotrichoides); assay: Example B14: liquid culture test, eyespot; type: cell-based
[2] = test system: Botryotinia fuckeliana (Botrytis cinerea); assay: Example B1: liquid culture test, gray mould; type: cell-based
[3] = test system: Pythium ultimum; assay: Example B2: liquid culture test, seedling damping off; type: cell-based
[4] = test system: Sclerotinia sclerotiorum; assay: Example B3: liquid culture test, cottony rot; type: cell-based
[5] = test system: Mycosphaerella arachidis (Cercospora arachidicola); assay: Example B4: liquid culture test, early leaf spot; type: cell-based
[6] = test system: Tapesia yallundae W-type (Pseudocercosporella herpotrichoides); assay: Example B5: liquid culture test, eyespot; type: cell-based
[7] = test system: Thanatephorus cucumeris (Rhizoctonia solani); assay: Example B15: liquid culture test, foot rot, damping-off; type: cell-based
[8] = test system: Botryotinia fuckeliana (Botrytis cinerea); assay: Example B16: liquid culture test, gray mould; type: cell-based
[9] = test system: Mycosphaerella graminicola (Septoria tritici); assay: Example B17: liquid culture test, Septoria blotch; type: cell-based
[10] = test system: Mycosphaerella graminicola (Septoria tritici); assay: Example B6: liquid culture test, Septoria blotch; type: cell-based
[11] = test system: Tapesia yallundae W-type (Pseudocercosporella herpotrichoides); assay: Example B7: liquid culture test, eyespot; type: cell-based
[12] = test system: Plasmopara viticola; assay: Example B18: grape leaf disc preventative test
Experimental: Leaf disks or leaf segments of various plant species were cut from plants grown in the greenhouse. The cut leaf disks or segments were placed in multiwell plates (24-well format) onto water agar. The leaf disks were sprayed with a test solution before (preventative) or after (curative) inoculation. Compounds to be tested were prepared as DMSO solutions (max. 10 mg/ml) which were diluted to the appropriate concentration with 0.025% Tween20 just before spraying. The inoculated leaf disks or segments were incubated under defined conditions (temperature, relative humidity, light, etc.) according to the respective test system. A single evaluation of disease level was carried out 3-9 days after inoculation, depending on the pathosystem. Percent disease control relative to the untreated check leaf disks or segments was then calculated.
The leaf disks were inoculated with a spore suspension of the fungus 1 day after application. The inoculated leaf disks were incubated at 19° C. and 80% rh under a light regime of 12 h light/12 h darkness in a climate cabinet and the activity of a compound was assessed as percent disease control compared to untreated when an appropriate level of disease damage appears in untreated check leaf disks (6-8 days after application).

[13] = test system: Sclerotinia sclerotiorum; assay: Example B8: liquid culture test, cottony rot; type: cell-based
[14] = test system: Mycosphaerella graminicola (Septoria tritici); assay: Example B9: liquid culture test, Septoria blotch; type: cell-based
[15] = test system: Tapesia yallundae W-type (Pseudocercosporella herpotrichoides); assay: Example B10: liquid culture test, eyespot; type: cell-based
[16] = test system: Botryotinia fuckeliana (Botrytis cinerea); assay: Example B11: liquid culture test, gray mould; type: cell-based
[17] = test system: Fusarium culmorum; type: cell-based
[18] = test system: Mycosphaerella graminicola (Septoria tritici); assay: Example B13: liquid culture test, Septoria blotch; type: cell-based

Measured: % action

CC(C)(C)C(O)(CCc1ccc(Cl)cc1)Cn1cncn1 (stereo not drawn) [Tebuconazol, tebuconazole, reference compound]
20%: [1]; 0.625 ppm

CO/C=C(/C(=O)OC)c1ccccc1Oc1cc(Oc2ccccc2C#N)ncn1 [Azoxystrobin, azoxystrobin]
50%: [2]; 0.500 ppm | [2]; 1.000 ppm | [2]; 2.000 ppm | [3]; 10.000 ppm | [4]; 5.000 ppm | [5]; 0.078 ppm
0%: [2]; 0.063 ppm | [4]; 0.625 ppm | [6]; 0.078 ppm | [6]; 0.156 ppm
20%: [2]; 0.125 ppm | [2]; 0.250 ppm | [4]; 1.250 ppm | [4]; 2.500 ppm | [5]; 0.039 ppm | [6]; 0.313 ppm | [6]; 0.625 ppm | [6]; 1.250 ppm | [6]; 2.500 ppm | [6]; 5.000 ppm
70%: [3]; 20.000 ppm | [5]; 0.156 ppm

CC(C)C1C2CCC1c1c(NC(=O)c3cn(C)nc3C(F)F)cccc12 (stereo not drawn) [isopyrazam, reference compound]
0%: [9]; 0.031 ppm
70%: [7]; 0.250 ppm | [7]; 0.500 ppm | [7]; 1.000 ppm | [7]; 2.000 ppm | [9]; 0.125 ppm
20%: [8]; 0.031 ppm | [8]; 0.063 ppm | [9]; 0.063 ppm
50%: [7]; 0.125 ppm

Cc1cc(C2CC2)nc(Nc2ccccc2)n1 [Cyprodinil, cyprodinil]
0%: [10]; 0.156 ppm | [10]; 0.313 ppm | [10]; 0.625 ppm | [10]; 1.250 ppm | [11]; 0.039 ppm | [11]; 0.078 ppm | [11]; 0.156 ppm | [11]; 0.313 ppm | [11]; 0.625 ppm | [11]; 1.250 ppm | [11]; 2.500 ppm | [11]; 5.000 ppm

C#CCOc1ccc(CCNC(=O)C(OCC#C)c2ccc(Cl)cc2)cc1OC (stereo not drawn) [Mandipropamid, mandipropamid, reference compound]
37%: [12]; 1.250 ppm
30%: [12]; 0.625 ppm
67%: [12]; 2.500 ppm

N#Cc1c(Cl)c(Cl)c(Cl)c(C#N)c1Cl [Chlorothalonil, chlorothalonil, reference compound]
20%: [13]; 0.313 ppm | [14]; 0.078 ppm | [15]; 0.156 ppm | [15]; 0.313 ppm
90%: [13]; 0.625 ppm
50%: [14]; 0.156 ppm
0%: [13]; 0.156 ppm

N#Cc1c[nH]cc1-c1cccc2c1OC(F)(F)O2 [Fludioxonil, fludioxonil, reference compound]
70%: [16]; 0.125 ppm | [17]; 0.500 ppm
20%: [16]; 0.063 ppm | [17]; 0.250 ppm

COC(c1ccc(Cl)cc1Cl)C(C)NC(=O)c1cn(C)nc1C(F)F (racemic) [Comp. 1.001, 3-difluoromethyl-1-methyl-1H-pyrazole-4-carboxylic acid [2-(2,4-dichlorophenyl)-2-methoxy-1-methyl-ethyl]-amide]
50%: [2]; 0.250 ppm | [2]; 0.500 ppm | [4]; 0.625 ppm | [6]; 0.625 ppm | [11]; 0.625 ppm | [13]; 0.625 ppm | [15]; 1.250 ppm | [16]; 0.500 ppm | [1]; 0.625 ppm | [9]; 0.125 ppm
20%: [2]; 0.063 ppm | [2]; 0.125 ppm | [4]; 0.313 ppm | [5]; 0.078 ppm | [6]; 0.313 ppm | [11]; 0.156 ppm | [11]; 0.313 ppm | [13]; 0.313 ppm | [14]; 0.078 ppm | [15]; 0.313 ppm | [15]; 0.625 ppm | [16]; 0.125 ppm | [16]; 0.250 ppm | [17]; 2.000 ppm | [18]; 0.078 ppm | [1]; 0.156 ppm | [1]; 0.313 ppm | [8]; 0.063 ppm | [8]; 0.125 ppm | [9]; 0.063 ppm
90%: [10]; 0.313 ppm
7%: [12]; 5.000 ppm
0%: [3]; 2.500 ppm | [3]; 5.000 ppm | [3]; 10.000 ppm | [3]; 20.000 ppm | [5]; 0.039 ppm | [6]; 0.156 ppm | [11]; 0.039 ppm | [11]; 0.078 ppm | [13]; 0.078 ppm | [13]; 0.156 ppm | [15]; 0.078 ppm | [15]; 0.156 ppm | [16]; 0.031 ppm | [16]; 0.063 ppm | [17]; 0.063 ppm | [17]; 0.125 ppm | [17]; 0.250 ppm | [17]; 0.500 ppm | [17]; 1.000 ppm | [7]; 0.250 ppm | [7]; 0.500 ppm | [7]; 1.000 ppm | [7]; 2.000 ppm | [8]; 0.016 ppm | [8]; 0.031 ppm | [9]; 0.016 ppm | [9]; 0.031 ppm | [12]; 0.625 ppm | [12]; 1.250 ppm | [12]; 2.500 ppm | [12]; 10.000 ppm
70%: [2]; 1.000 ppm | [4]; 1.250 ppm | [6]; 1.250 ppm | [10]; 0.156 ppm | [11]; 1.250 ppm | [13]; 1.250 ppm | [14]; 0.156 ppm | [18]; 0.156 ppm | [1]; 1.250 ppm

CCCC(Cn1cncn1)c1ccc(Cl)cc1Cl (stereo not drawn) [Penconazole, penconazole]
0%: [18]; 0.078 ppm | [18]; 0.156 ppm | [18]; 0.313 ppm
20%: [18]; 0.625 ppm
